Patent US20070244162A1 (priority 2005, published 2007)

Key:
Assay type in all cases: cell-based
[1] = tested on: Stagonospora nodorum; assay: microbe, parasite or virus in culture
[2] = tested on: Septoria tritici; assay: microbe, parasite or virus in culture; settings: for IC50: Zymoseptoria tritici, read-out: Fungicidal activity IC50, S. tritici
[3] = tested on: Phytophthora infestans; assay: microbe, parasite or virus in culture; settings: read-out: Fungicidal activity IC50, P. infestans
[4] = tested on: Botrytis cinerea
[5] = tested on: Monilinia fructicola; assay: microbe, parasite or virus in culture; settings: read-out: Fungicidal activity IC50, M. fructicola

Compound	IC50 ([1]; Parastagonospora nodorum, read-out: Fungicidal activity IC50, S. nodorum)	Fungicidal activity IC50, S. tritici [2]	IC50 [3]	Fungicidal activity IC50, B. cinerea [4]	IC50 [5]	Fungicidal activity IC50, S. nodorum [1]	IC50 [2]
OC(c1cccnc1)c1c(-c2ccc(Cl)cc2)csc1-c1ccc(Cl)s1 (stereo not shown) [Compound 4, 4-(4-Chlorophenyl)-2-(5-chloro-2-thienyl)-3-[(3-pyridyl)hydroxymethyl]-thiophene]	110 to 1000 nM	A (d)	> 100 µM	B (c)	< 100 nM		
OC(c1cccnc1)c1c(-c2ccc(F)cc2F)csc1-c1ccc(Cl)cc1 (stereo not shown) [Compound 6, 2-(4-Chlorophenyl)-4-(2,4-difluorophenyl)-3-[(3-pyridyl)hydroxymethyl]-thiophene]		A (b)	> 100 µM	B (d)	< 100 nM	B (c)	
OC(c1cccnc1)c1c(-c2ccc(Cl)cc2)csc1-c1ccc(Cl)cc1 (stereo not shown) [Compound 8, 2,4-Bis-(4-chlorophenyl)-3-[(3-pyridyl)hydroxymethyl]-thiophene]		A (d)	> 100 µM			B (d)	
OC(c1cccnc1)c1c(-c2ccc(Cl)cc2)csc1-c1cccs1 (stereo not shown) [Compound 9, 4-(4-Chlorophenyl)-3-[(3-pyridyl)hydroxymethyl]-2-(2-thienyl)thiophene]		A (c)	> 100 µM	B (d)	< 100 nM	A (d)	
OC(c1cccnc1)c1c(-c2cccs2)csc1-c1ccc(Cl)cc1 (stereo not shown) [Compound 12, 2-(4-Chlorophenyl)-3-[(3-pyridyl)hydroxymethyl]-4-(2-thienyl)thiophene]			> 100 µM	A (d)	< 100 nM	A (d)	< 100 nM
Cc1ccc(-c2csc(-c3ccc(F)cc3F)c2C(O)c2cccnc2)s1 (stereo not shown) [Compound 14, 2-(2,4-Difluorophenyl)-4-(5-methyl-2-thienyl)-3-[(3-pyridyl)hydroxymethyl]-thiophene]			> 100 µM	B (d)	< 100 nM	A (b)	< 100 nM
